Legend:
Type in all cases: functional, cell-based
LoVo = assay: Cytotoxicity against human LoVo cells by MTT colorimetric method
MG-63 = assay: Cytotoxicity against human MG63 cells by MTT colorimetric method
A549 = assay: Cytotoxicity against human A549 cells by MTT colorimetric method

SMILES | IC50 (LoVo) [µM] | IC50 (MG-63) [µM] | IC50 (A549) [µM]
COc1cc(OC)c2c(c1)C(=O)[C@@H]1C[C@@H](O)C[C@@]2(O)[C@@H]1CO | > 97.4 | > 97.4 | > 97.4
COc1cccc2c1C(=O)c1c(O)c3c(c(O)c1C2=O)C[C@@](O)(C(=O)CO)C[C@@H]3O[C@H]1C[C@H](N)[C@H](O)[C@H](C)O1 [DOXORUBICIN] | 2.7 | 2.7 | –

Source: ChEMBL document CHEMBL2150860, “Herbarone, a rearranged heptaketide derivative from the sea hare associated fungus Torula herbarum” (J Nat Prod, 2012)
